Laboratory results published in ChEMBL document CHEMBL4354799, “Exploiting Structural Dynamics To Design Open-Flap Inhibitors of Malarial Aspartic Proteases” (J Med Chem, 2019).

What was measured:
Plasmepsin II [1] = target: T1, Plasmepsin II (Plasmodium falciparum, UniProt P46925); experiment: Inhibition of Plasmodium falciparum plasmepsin 2 using Dabcyl-ERNIef:LSFP-EDANS as substrate incubated for 40 mins by FRET assay
Plasmepsin II [2] = target: T1, Plasmepsin II; experiment: Inhibition of Plasmodium falciparum plasmepsin 2 using DABCYL-Glu-Arg-Nle-Phe-Leu-Ser-Phe-Pro-EDANS as substrate by FRET assay
Cathepsin D = Cathepsin D (Homo sapiens, UniProt P07339); experiment: Inhibition of human liver cathepsin D using DABCYL-Glu-Arg-Nle-Phe-Leu-Ser-Phe-Pro-EDANS as substrate by FRET assay
Plasmepsin II [3] = target: T1, Plasmepsin II; experiment: Inhibition of Plasmodium falciparum plasmepsin 2 using fluorescently labeled peptide substrate by fluorescence method
Plasmepsin 4 [4] = target: T2, Plasmepsin 4 (Plasmodium falciparum, UniProt Q17SB2); experiment: Inhibition of Plasmodium falciparum plasmepsin 4 using fluorescently labeled peptide substrate by fluorescence method
Plasmepsin II [5] = target: T1, Plasmepsin II; experiment: Inhibition of Plasmodium falciparum plasmepsin 2 incubated for 10 mins followed by DABCYL-Glu-Arg-Nle-Phe-Leu-Ser-Phe-Pro-EDANS addition and measured after 30 mins by fluorescence method
Plasmepsin II [6] = target: T1, Plasmepsin II; experiment: Inhibition of Plasmodium falciparum plasmepsin 2 by FRET assay
Plasmepsin 4 [7] = target: T2, Plasmepsin 4; experiment: Inhibition of Plasmodium falciparum plasmepsin 4 by FRET assay
Plasmepsin II [8] = target: T1, Plasmepsin II; experiment: Inhibition of Plasmodium falciparum plasmepsin 2 preincubated for 30 mins followed by DABCYL-Glu-Arg-Nle-Phe-Leu-Ser-Phe-Pro-EDANS addition measured every minute for 8 to 15 mins by FRET assay

T2 sequence (Q17SB2 whole entry): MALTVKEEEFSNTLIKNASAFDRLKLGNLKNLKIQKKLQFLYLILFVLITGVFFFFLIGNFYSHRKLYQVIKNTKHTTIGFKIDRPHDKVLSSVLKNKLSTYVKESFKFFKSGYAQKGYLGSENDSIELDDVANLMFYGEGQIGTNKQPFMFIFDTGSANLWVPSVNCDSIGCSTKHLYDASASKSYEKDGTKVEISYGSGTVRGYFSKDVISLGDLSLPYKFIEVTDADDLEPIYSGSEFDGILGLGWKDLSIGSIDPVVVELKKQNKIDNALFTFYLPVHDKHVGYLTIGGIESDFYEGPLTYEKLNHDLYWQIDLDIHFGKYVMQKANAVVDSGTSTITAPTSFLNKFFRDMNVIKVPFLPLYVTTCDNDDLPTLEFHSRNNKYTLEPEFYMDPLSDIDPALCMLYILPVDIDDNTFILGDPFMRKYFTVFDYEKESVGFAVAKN
Cathepsin D, sequence (P07339 65-162 limits assumed): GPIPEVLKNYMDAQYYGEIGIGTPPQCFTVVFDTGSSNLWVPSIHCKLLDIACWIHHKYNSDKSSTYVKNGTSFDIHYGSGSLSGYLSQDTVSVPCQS
Cathepsin D, sequence (P07339 169-412 limits assumed): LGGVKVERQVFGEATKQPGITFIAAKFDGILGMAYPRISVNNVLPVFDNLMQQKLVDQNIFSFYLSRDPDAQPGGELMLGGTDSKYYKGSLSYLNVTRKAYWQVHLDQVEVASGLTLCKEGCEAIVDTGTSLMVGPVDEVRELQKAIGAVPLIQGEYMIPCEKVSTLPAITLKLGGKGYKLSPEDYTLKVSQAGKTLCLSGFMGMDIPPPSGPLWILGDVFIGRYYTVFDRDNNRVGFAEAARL
T1 sequence (P46925 whole entry): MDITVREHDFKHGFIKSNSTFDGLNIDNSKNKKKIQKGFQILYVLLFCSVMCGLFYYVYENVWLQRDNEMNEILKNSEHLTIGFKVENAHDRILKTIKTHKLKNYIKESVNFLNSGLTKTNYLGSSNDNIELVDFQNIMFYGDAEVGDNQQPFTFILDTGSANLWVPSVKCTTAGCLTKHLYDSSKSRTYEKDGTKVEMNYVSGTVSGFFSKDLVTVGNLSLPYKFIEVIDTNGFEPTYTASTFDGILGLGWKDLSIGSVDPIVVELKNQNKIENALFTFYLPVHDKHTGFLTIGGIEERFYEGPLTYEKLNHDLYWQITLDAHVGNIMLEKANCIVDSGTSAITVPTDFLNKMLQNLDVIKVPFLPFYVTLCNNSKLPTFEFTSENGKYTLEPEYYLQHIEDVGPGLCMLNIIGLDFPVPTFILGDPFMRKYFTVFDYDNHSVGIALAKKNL

O=C(C1=C(c2ccc(CCCOc3cc(F)ccc3Br)cc2)CCNC1)N(Cc1ccccc1Cl)C1CC1
IC50 (Plasmepsin II [1]): < 0.1 µM

NNC(=O)c1ccccc1[N+](=O)[O-]
IC50 (Plasmepsin II [2]): 1 to 2.5 µM | IC50 (Cathepsin D): 1 to 2.5 µM

COc1ccccc1C(=O)NN
IC50 (Plasmepsin II [2]): 1 to 2.5 µM | IC50 (Cathepsin D): 1 to 2.5 µM

O=S(=O)(c1ccc(CCCCC2CCCC2)cc1)C1C2CCC(N2)C1NCc1ccc2ccccc2c1 (centres undefined)
IC50 (Plasmepsin II [3]): 0.19 µM | IC50 (Plasmepsin 4 [4]): 0.21 µM

O=C(Nc1cc(C(F)(F)F)ccc1Cl)Nc1cc(Cl)ccc1Oc1cc(Cl)c(Cl)cc1S(=O)(=O)O
Ki (Plasmepsin II [5]): 0.05 to 0.68 µM

Clc1ccc2sc(SCCCc3cc4c(cc3OCCc3cccc5ccccc35)C3CCC4N3)nc2c1 (centres undefined)
IC50 (Plasmepsin II [6]): 2 µM | IC50 (Plasmepsin 4 [7]): 10 µM

COc1cccc(OCCc2ccc(C3=C(C(=O)N(C)CCc4ccccc4)C4CN(C(C)=O)CC(C3)N4)cc2)c1 (centres undefined)
IC50 (Plasmepsin II [1]): 0.01 to 0.1 µM

CCCCCCCCCCCC(=O)N(Cc1ccc(-c2ccccc2)cc1)C1CCN(Cc2ccccc2)CC1
IC50 (Plasmepsin II [1]): 1.8 µM

CCCCCCc1ccc(S(=O)(=O)[C@@H]2[C@H](NCc3cccc(Br)c3)[C@@H]3CC[C@H]2N3)cc1
IC50 (Plasmepsin II [3]): ≤ 0.045 µM | IC50 (Plasmepsin 4 [4]): 0.01 µM

CC(C)(C)c1ccc(C(=O)N(Cc2ccc(-c3ccccc3)cc2)C2CCN(Cc3ccccc3)CC2)cc1
IC50 (Plasmepsin II [1]): > 20 µM

CCN(CC)CCc1nnn(-c2ccc(C)cc2)c1-c1ccc(-c2ccc(OC)cc2)cc1
IC50 (Plasmepsin II [8]): > 200 µM

CCc1ccc(C(=O)N(Cc2ccc(-c3ccccc3)cc2)C2CCN(Cc3ccccc3)CC2)cc1
IC50 (Plasmepsin II [1]): 15.6 µM

c1cc(NNc2ccncc2)ccn1
IC50 (Plasmepsin II [2]): 1 to 2.5 µM | IC50 (Cathepsin D): 1 to 2.5 µM

CC(C)CCCCc1ccc(S(=O)(=O)C2C3CCC(N3)C2NCc2ccc3ccccc3c2)cc1 (centres undefined)
IC50 (Plasmepsin II [3]): 0.03 µM | IC50 (Plasmepsin 4 [4]): 0.09 µM

O=S(=O)(c1ccc(CCCCC2CCCCC2)cc1)C1C2CCC(N2)C1NCc1ccc2ccccc2c1 (centres undefined)
IC50 (Plasmepsin II [3]): 0.38 µM | IC50 (Plasmepsin 4 [4]): 0.76 µM

O=C(C1=C(c2ccc(CCCOc3ccccc3Cl)cc2)CCNC1)N(Cc1ccccc1Cl)C1CC1
IC50 (Plasmepsin II [1]): < 0.1 µM

O=S(=O)(c1ccc(CCCCC2CCC2)cc1)C1C2CCC(N2)C1NCc1ccc2ccccc2c1 (centres undefined)
IC50 (Plasmepsin II [3]): 0.17 µM | IC50 (Plasmepsin 4 [4]): 0.18 µM

CCCC(=O)NN
IC50 (Plasmepsin II [2]): 1 to 2.5 µM | IC50 (Cathepsin D): 1 to 2.5 µM

CCCCCc1ccc(Cn2nnc(CCN(CC)CC)c2-c2ccc(-c3ccc(OC)cc3)cc2)cc1
IC50 (Plasmepsin II [8]): 5.2 µM

CC(=O)N1CC2CC(c3ccc(CCOc4ccccc4C(C)(C)C)cc3)=C(C(=O)N(C)CCc3ccccc3)C(C1)N2 (centres undefined)
IC50 (Plasmepsin II [1]): 0.01 to 0.1 µM

CCCCCc1ccc(N(CC2CCC(O)C(F)(F)C2)C(=O)Cc2ccc3ccccc3c2)cc1 (centres undefined)
IC50 (Plasmepsin II [6]): 7 µM

O=C(C1=C(c2ccc(CCCOc3c(F)ccc(F)c3F)cc2)CCNC1)N(Cc1ccccc1Cl)C1CC1
IC50 (Plasmepsin II [1]): 0.1 to 10 µM

O=C(Nc1cc(C(F)(F)F)cc(C(F)(F)F)c1)Nc1c(Oc2ccc(Cl)cc2)ccc(Cl)c1S(=O)(=O)O
Ki (Plasmepsin II [5]): 0.05 to 0.68 µM

O=C(Nc1ccc(Oc2ccc(Cl)cc2)c(Cl)c1)Nc1cc(Cl)c(Cl)cc1S(=O)(=O)O
Ki (Plasmepsin II [5]): 0.05 to 0.68 µM

c1ccc(-c2nnc(SCCOc3cc4c(cc3OCCc3cccc5ccccc35)C3CCC4N3)o2)cc1 (centres undefined)
IC50 (Plasmepsin II [6]): 79 µM

CC(=O)N1CC2CC(c3ccc(CCOc4cc(Cl)cc(Cl)c4)cc3)=C(C(=O)N(C)CCc3ccccc3)C(C1)N2 (centres undefined)
IC50 (Plasmepsin II [1]): 0.01 to 0.1 µM

CCCCCc1ccc(S(=O)(=O)C2C3CCC(N3)C2NCc2ccc3ccccc3c2)cc1 (centres undefined)
IC50 (Plasmepsin II [3]): 0.68 µM | IC50 (Plasmepsin 4 [4]): 0.24 µM

O=C(Nc1ccc(Oc2ccc(Cl)cc2)c(Cl)c1)Nc1cc(C(F)(F)F)c(Cl)cc1S(=O)(=O)O
Ki (Plasmepsin II [5]): 0.05 to 0.68 µM

CC(=O)N1CC2CC(c3ccc(CCOc4cccc(Br)c4)cc3)=C(C(=O)N(C)CCc3ccccc3)C(C1)N2 (centres undefined)
IC50 (Plasmepsin II [1]): 0.01 to 0.1 µM

O=C(Nc1ccc(Cl)c(C(F)(F)F)c1)Nc1cc(Cl)c(Oc2ccc(Cl)cc2)cc1S(=O)(=O)O
Ki (Plasmepsin II [5]): 0.05 to 0.68 µM

CC(=O)N1CC2CC(c3ccc(CCOc4ccc(C)cc4C(C)(C)C)cc3)=C(C(=O)N(C)CCc3ccccc3)C(C1)N2 (centres undefined)
IC50 (Plasmepsin II [1]): 0.1 to 10 µM

CC(=O)N1CC2CC(c3ccc(CCOc4cc(Cl)ccc4Cl)cc3)=C(C(=O)N(C)CCc3ccccc3)C(C1)N2 (centres undefined)
IC50 (Plasmepsin II [1]): 0.01 to 0.1 µM

O=C(Nc1ccc(Cl)c(Cl)c1)Nc1cc(Cl)c(Oc2ccc(Cl)cc2)cc1S(=O)(=O)O
Ki (Plasmepsin II [5]): 0.05 to 0.68 µM

CC(=O)N1CC2CC(c3ccc(CCOc4cccc(Cl)c4)cc3)=C(C(=O)N(C)CCc3ccccc3)C(C1)N2 (centres undefined)
IC50 (Plasmepsin II [1]): 0.1 to 10 µM

Cc1ccc(C)c(OCCCc2ccc(C3=C(C(=O)N(Cc4ccccc4Cl)C4CC4)CNCC3)cc2)c1C
IC50 (Plasmepsin II [1]): 0.1 to 10 µM

c1ccc2c(CCOc3cc4c(cc3OCCSc3nc5ccccc5s3)C3CCC4N3)cccc2c1 (centres undefined)
IC50 (Plasmepsin II [6]): 3 µM | IC50 (Plasmepsin 4 [7]): 15 µM

NNC(=O)C(c1ccccc1)c1ccccc1
IC50 (Plasmepsin II [2]): 1 to 2.5 µM | IC50 (Cathepsin D): 1 to 2.5 µM

COc1cc2c(cc1OCCc1cccc3ccccc13)C1CCC2N1 (centres undefined)
IC50 (Plasmepsin II [6]): 24 µM | IC50 (Plasmepsin 4 [7]): 81 µM

CC(=O)N1CC2CC(c3ccc(CCOc4ccccc4C(C)C)cc3)=C(C(=O)N(C)CCc3ccccc3)C(C1)N2 (centres undefined)
IC50 (Plasmepsin II [1]): 0.01 to 0.1 µM

CCCCCCc1ccc(S(=O)(=O)C2C3CCC(N3)C2NCc2ccc3ccccc3c2)cc1 (centres undefined)
IC50 (Plasmepsin II [3]): 0.13 µM | IC50 (Plasmepsin 4 [4]): 0.05 µM

O=C(Nc1cccc(C(F)(F)F)c1)Nc1ccc(Oc2ccc(Cl)cc2Cl)cc1S(=O)(=O)O
Ki (Plasmepsin II [5]): 0.05 to 0.68 µM

c1ccc2c(CCOc3cc4c(cc3CCCSc3nc5ccccc5s3)C3CCC4N3)cccc2c1 (centres undefined)
IC50 (Plasmepsin II [6]): 4 µM | IC50 (Plasmepsin 4 [7]): 33 µM

O=C(Nc1ccc(Cl)c(Cl)c1)Nc1cc(Cl)ccc1Oc1cc(Cl)c(Cl)cc1S(=O)(=O)O
Ki (Plasmepsin II [5]): 0.05 to 0.68 µM

CCCCCCCCCc1ccc(S(=O)(=O)C2C3CCC(N3)C2NCc2ccc3ccccc3c2)cc1 (centres undefined)
IC50 (Plasmepsin II [3]): 0.15 µM | IC50 (Plasmepsin 4 [4]): 1.36 µM

CCCCCCCCCCc1ccc(S(=O)(=O)C2C3CCC(N3)C2NCc2ccc3ccccc3c2)cc1 (centres undefined)
IC50 (Plasmepsin II [3]): 0.35 µM | IC50 (Plasmepsin 4 [4]): 3.19 µM

CCCCCCCCCCCc1ccc(S(=O)(=O)C2C3CCC(N3)C2NCc2ccc3ccccc3c2)cc1 (centres undefined)
IC50 (Plasmepsin II [3]): 1.95 µM | IC50 (Plasmepsin 4 [4]): 5.35 µM

CC(=O)N1CC2CC(c3ccc(CCOc4ccc(C(C)(C)C)cc4C)cc3)=C(C(=O)N(C)CCc3ccccc3)C(C1)N2 (centres undefined)
IC50 (Plasmepsin II [1]): 0.01 to 0.1 µM

CC(C)CCCN(CCCC(C)C)CC(O)c1cc2c(c3ccccc13)CCCC2 (centres undefined)
IC50 (Plasmepsin II [3]): 19 µM

CCCCCc1ccc(-n2nnc(CCN(CC)CC)c2-c2ccc(-c3ccc(OC)cc3)cc2)c(Cl)c1
IC50 (Plasmepsin II [8]): 0.6 µM

CCCCOc1ccc(C(=O)N(Cc2ccc(-c3ccccc3)cc2)C2CCN(Cc3ccccc3)CC2)cc1
IC50 (Plasmepsin II [1]): 1.7 µM

CC(=O)N1CC2CC(c3ccc(CCOc4cccc(OC(F)(F)F)c4)cc3)=C(C(=O)N(C)CCc3ccccc3)C(C1)N2 (centres undefined)
IC50 (Plasmepsin II [1]): 0.01 to 0.1 µM

CC(=O)N1CC2CC(c3ccc(CCOc4cc(F)ccc4Br)cc3)=C(C(=O)N(C)CCc3ccccc3)C(C1)N2 (centres undefined)
IC50 (Plasmepsin II [1]): < 0.01 µM

CCCCCc1ccc(C(=O)N(Cc2ccc(-c3ccccc3)cc2)C2CCN(Cc3ccccc3)CC2)cc1
IC50 (Plasmepsin II [1]): 0.07 to 0.09 µM

CCCCCCCCc1ccc(S(=O)(=O)C2C3CCC(N3)C2NCc2ccc3ccccc3c2)cc1 (centres undefined)
IC50 (Plasmepsin II [3]): 0.07 µM | IC50 (Plasmepsin 4 [4]): 0.43 µM

O=C(Nc1ccc(Cl)c(C(F)(F)F)c1)Nc1cc(Cl)ccc1Oc1ccc(Cl)cc1S(=O)(=O)O
Ki (Plasmepsin II [5]): 0.05 to 0.68 µM

CCCCCN(CCCCC)CC(O)c1cc2c(c3ccccc13)CCCC2 (centres undefined)
IC50 (Plasmepsin II [3]): 5 µM

CC(=O)N1CC2CC(c3ccc(CCOc4ccccc4Cl)cc3)=C(C(=O)N(C)CCc3ccccc3)C(C1)N2 (centres undefined)
IC50 (Plasmepsin II [1]): 0.1 to 10 µM

CCCCCCCc1ccc(S(=O)(=O)C2C3CCC(N3)C2NCc2ccc3ccccc3c2)cc1 (centres undefined)
IC50 (Plasmepsin II [3]): 0.05 µM | IC50 (Plasmepsin 4 [4]): 0.21 µM

CCCCCc1ccc(-n2nnc(CCN(CC)CC)c2-c2ccc(-c3ccc(OC)cc3)cc2)cc1
IC50 (Plasmepsin II [8]): 0.6 µM

CCCCc1ccc(S(=O)(=O)C2C3CCC(N3)C2NCc2ccc3ccccc3c2)cc1 (centres undefined)
IC50 (Plasmepsin II [3]): 4.19 µM | IC50 (Plasmepsin 4 [4]): 1.48 µM

c1ccc(NNc2ccccc2)cc1 [HYDRAZOBENZENE]
IC50 (Plasmepsin II [2]): 1 to 2.5 µM | IC50 (Cathepsin D): 1 to 2.5 µM
